# Assay results taken from ChEMBL document CHEMBL3885881, “DrugMatrix”.
# Species: Rattus norvegicus
# Experiment: DrugMatrix - Regimen: Daily Repeat
# Type: toxicity, organism-based, Sprague-Dawley
# Parameters: regimen Daily Repeat, gender Male, age 6-8 weeks
# Conditions: in vivo, po, route oral GAVAGE, vehicle .5 % CMC; for BASOPHIL / EOSINOPHIL / ERYTHROCYTE COUNT / HEMATOCRIT / HEMOGLOBIN / LEUKOCYTE COUNT / LYMPHOCYTE / MEAN CORPUSCULAR HEMOGLOBIN / MEAN CORPUSCULAR HEMOGLOBIN CONCENTRATION / MEAN CORPUSCULAR VOLUME / MONOCYTE / NEUTROPHIL / PLATELET COUNT: tissue Blood; for ALANINE AMINOTRANSFERASE / ALBUMIN / ALKALINE PHOSPHATASE / ASPARTATE AMINOTRANSFERASE / BLOOD UREA NITROGEN / CHLORIDE / CHOLESTEROL / CREATINE PHOSPHOKINASE / CREATININE / GLUCOSE / PHOSPHORUS / POTASSIUM / SODIUM / TOTAL BILIRUBIN / TOTAL PROTEIN: tissue Plasma
# [1] = 0 mg/kg, 72 h, dose level Control, time 3 day
# [2] = 0 mg/kg, 120 h, dose level Control, time 5 day
# [3] = 1 mg/kg, 72 h, dose level Low, time 3 day
# [4] = 1 mg/kg, 120 h, dose level Low, time 5 day
# [5] = 22 mg/kg, 72 h, dose level High, time 3 day
# [6] = 22 mg/kg, 120 h, dose level High, time 5 day
structure (smiles),measurement,setting,value
N=C(N)NC(=O)c1nc(Cl)c(N)nc1N [AMILORIDE],BASOPHIL,[1],0%
same,EOSINOPHIL,[1],0.33%
same,ERYTHROCYTE COUNT,[1],6.2 x10E6/uL
same,HEMATOCRIT,[1],38.08%
same,HEMOGLOBIN,[1],14.92 G/DL
same,LEUKOCYTE COUNT,[1],11.13 x10E3/uL
same,LYMPHOCYTE,[1],76%
same,MEAN CORPUSCULAR HEMOGLOBIN,[1],24.1 pg
same,MEAN CORPUSCULAR HEMOGLOBIN CONCENTRATION,[1],39.17 G/DL
same,MEAN CORPUSCULAR VOLUME,[1],61.48 fL
same,MONOCYTE,[1],3.83%
same,NEUTROPHIL,[1],19.83%
same,PLATELET COUNT,[1],1327.5 x10E3/uL
same,ALANINE AMINOTRANSFERASE,[1],40.17 u/L
same,ALBUMIN,[1],4.07 G/DL
same,ALKALINE PHOSPHATASE,[1],372 u/L
same,ASPARTATE AMINOTRANSFERASE,[1],67.17 u/L
same,BLOOD UREA NITROGEN,[1],18.83 mg/dL
same,CHLORIDE,[1],105.17 MEQ/L
same,CHOLESTEROL,[1],78.17 mg/dL
same,CREATINE PHOSPHOKINASE,[1],149.17 u/L
same,CREATININE,[1],0.57 mg/dL
same,GLUCOSE,[1],185.17 mg/dL
same,PHOSPHORUS,[1],11.43 mg/dL
same,POTASSIUM,[1],6.78 MEQ/L
same,SODIUM,[1],152.83 MEQ/L
same,TOTAL BILIRUBIN,[1],0.4 mg/dL
same,TOTAL PROTEIN,[1],6.87 G/DL
same,BASOPHIL,[2],0%
same,EOSINOPHIL,[2],0%
same,ERYTHROCYTE COUNT,[2],6.05 x10E6/uL
same,HEMATOCRIT,[2],36.55%
same,HEMOGLOBIN,[2],14.7 G/DL
same,LEUKOCYTE COUNT,[2],11.8 x10E3/uL
same,LYMPHOCYTE,[2],86.83%
same,MEAN CORPUSCULAR HEMOGLOBIN,[2],24.37 pg
same,MEAN CORPUSCULAR HEMOGLOBIN CONCENTRATION,[2],40.32 G/DL
same,MEAN CORPUSCULAR VOLUME,[2],60.47 fL
same,MONOCYTE,[2],0.83%
same,NEUTROPHIL,[2],12.33%
same,PLATELET COUNT,[2],1177 x10E3/uL
same,ALANINE AMINOTRANSFERASE,[2],41.83 u/L
same,ALBUMIN,[2],3.75 G/DL
same,ALKALINE PHOSPHATASE,[2],377.5 u/L
same,ASPARTATE AMINOTRANSFERASE,[2],60.83 u/L
same,BLOOD UREA NITROGEN,[2],16 mg/dL
same,CHLORIDE,[2],105.67 MEQ/L
same,CHOLESTEROL,[2],67.83 mg/dL
same,CREATINE PHOSPHOKINASE,[2],120.33 u/L
same,CREATININE,[2],0.6 mg/dL
same,GLUCOSE,[2],167.67 mg/dL
same,PHOSPHORUS,[2],10.03 mg/dL
same,POTASSIUM,[2],6.68 MEQ/L
same,SODIUM,[2],150.5 MEQ/L
same,TOTAL BILIRUBIN,[2],0.57 mg/dL
same,TOTAL PROTEIN,[2],6.25 G/DL
same,BASOPHIL,[3],0%
same,EOSINOPHIL,[3],1.33%
same,ERYTHROCYTE COUNT,[3],6.13 x10E6/uL
same,HEMATOCRIT,[3],37.63%
same,HEMOGLOBIN,[3],14.93 G/DL
same,LEUKOCYTE COUNT,[3],12.73 x10E3/uL
same,LYMPHOCYTE,[3],84%
same,MEAN CORPUSCULAR HEMOGLOBIN,[3],24.37 pg
same,MEAN CORPUSCULAR HEMOGLOBIN CONCENTRATION,[3],39.67 G/DL
same,MEAN CORPUSCULAR VOLUME,[3],61.4 fL
same,MONOCYTE,[3],0.67%
same,NEUTROPHIL,[3],14%
same,PLATELET COUNT,[3],1265 x10E3/uL
same,ALANINE AMINOTRANSFERASE,[3],50 u/L
same,ALBUMIN,[3],3.87 G/DL
same,ALKALINE PHOSPHATASE,[3],414 u/L
same,ASPARTATE AMINOTRANSFERASE,[3],63.67 u/L
same,BLOOD UREA NITROGEN,[3],15.67 mg/dL
same,CHLORIDE,[3],107 MEQ/L
same,CHOLESTEROL,[3],81.33 mg/dL
same,CREATINE PHOSPHOKINASE,[3],135.67 u/L
same,CREATININE,[3],0.57 mg/dL
same,GLUCOSE,[3],168.67 mg/dL
same,PHOSPHORUS,[3],10.33 mg/dL
same,POTASSIUM,[3],6.13 MEQ/L
same,SODIUM,[3],152.33 MEQ/L
same,TOTAL BILIRUBIN,[3],0.43 mg/dL
same,TOTAL PROTEIN,[3],6.37 G/DL
same,BASOPHIL,[4],0%
same,EOSINOPHIL,[4],0%
same,ERYTHROCYTE COUNT,[4],5.82 x10E6/uL
same,HEMATOCRIT,[4],35.67%
same,HEMOGLOBIN,[4],14.2 G/DL
same,LEUKOCYTE COUNT,[4],12.4 x10E3/uL
same,LYMPHOCYTE,[4],85.33%
same,MEAN CORPUSCULAR HEMOGLOBIN,[4],24.43 pg
same,MEAN CORPUSCULAR HEMOGLOBIN CONCENTRATION,[4],39.93 G/DL
same,MEAN CORPUSCULAR VOLUME,[4],61.3 fL
same,MONOCYTE,[4],2%
same,NEUTROPHIL,[4],12.67%
same,PLATELET COUNT,[4],1224 x10E3/uL
same,ALANINE AMINOTRANSFERASE,[4],35.33 u/L
same,ALBUMIN,[4],3.67 G/DL
same,ALKALINE PHOSPHATASE,[4],386.67 u/L
same,ASPARTATE AMINOTRANSFERASE,[4],62 u/L
same,BLOOD UREA NITROGEN,[4],15 mg/dL
same,CHLORIDE,[4],105.33 MEQ/L
same,CHOLESTEROL,[4],74 mg/dL
same,CREATINE PHOSPHOKINASE,[4],130.33 u/L
same,CREATININE,[4],0.63 mg/dL
same,GLUCOSE,[4],171 mg/dL
same,PHOSPHORUS,[4],10.63 mg/dL
same,POTASSIUM,[4],6.7 MEQ/L
same,SODIUM,[4],150 MEQ/L
same,TOTAL BILIRUBIN,[4],0.5 mg/dL
same,TOTAL PROTEIN,[4],6.1 G/DL
same,BASOPHIL,[5],0%
same,EOSINOPHIL,[5],1%
same,ERYTHROCYTE COUNT,[5],5.75 x10E6/uL
same,HEMATOCRIT,[5],35.27%
same,HEMOGLOBIN,[5],13.6 G/DL
same,LEUKOCYTE COUNT,[5],10.47 x10E3/uL
same,LYMPHOCYTE,[5],85%
same,MEAN CORPUSCULAR HEMOGLOBIN,[5],23.63 pg
same,MEAN CORPUSCULAR HEMOGLOBIN CONCENTRATION,[5],38.63 G/DL
same,MEAN CORPUSCULAR VOLUME,[5],61.17 fL
same,MONOCYTE,[5],1.33%
same,NEUTROPHIL,[5],12.67%
same,PLATELET COUNT,[5],1066.33 x10E3/uL
same,ALANINE AMINOTRANSFERASE,[5],46 u/L
same,ALBUMIN,[5],4.03 G/DL
same,ALKALINE PHOSPHATASE,[5],373.67 u/L
same,ASPARTATE AMINOTRANSFERASE,[5],68.33 u/L
same,BLOOD UREA NITROGEN,[5],23.33 mg/dL
same,CHLORIDE,[5],102.67 MEQ/L
same,CHOLESTEROL,[5],70 mg/dL
same,CREATINE PHOSPHOKINASE,[5],117 u/L
same,CREATININE,[5],0.7 mg/dL
same,GLUCOSE,[5],167 mg/dL
same,PHOSPHORUS,[5],11.37 mg/dL
same,POTASSIUM,[5],7.33 MEQ/L
same,SODIUM,[5],146 MEQ/L
same,TOTAL BILIRUBIN,[5],0.57 mg/dL
same,TOTAL PROTEIN,[5],6.63 G/DL
same,BASOPHIL,[6],0%
same,EOSINOPHIL,[6],0%
same,ERYTHROCYTE COUNT,[6],6.16 x10E6/uL
same,HEMATOCRIT,[6],36.37%
same,HEMOGLOBIN,[6],14.6 G/DL
same,LEUKOCYTE COUNT,[6],18.57 x10E3/uL
same,LYMPHOCYTE,[6],86%
same,MEAN CORPUSCULAR HEMOGLOBIN,[6],23.73 pg
same,MEAN CORPUSCULAR HEMOGLOBIN CONCENTRATION,[6],40.17 G/DL
same,MEAN CORPUSCULAR VOLUME,[6],59.03 fL
same,MONOCYTE,[6],1.33%
same,NEUTROPHIL,[6],11.67%
same,PLATELET COUNT,[6],1100.67 x10E3/uL
same,ALANINE AMINOTRANSFERASE,[6],47.33 u/L
same,ALBUMIN,[6],3.77 G/DL
same,ALKALINE PHOSPHATASE,[6],450.67 u/L
same,ASPARTATE AMINOTRANSFERASE,[6],62 u/L
same,BLOOD UREA NITROGEN,[6],22.33 mg/dL
same,CHLORIDE,[6],104.67 MEQ/L
same,CHOLESTEROL,[6],76 mg/dL
same,CREATINE PHOSPHOKINASE,[6],128.33 u/L
same,CREATININE,[6],0.63 mg/dL
same,GLUCOSE,[6],167.67 mg/dL
same,PHOSPHORUS,[6],10.73 mg/dL
same,POTASSIUM,[6],6.83 MEQ/L
same,SODIUM,[6],148.33 MEQ/L
same,TOTAL BILIRUBIN,[6],0.47 mg/dL
same,TOTAL PROTEIN,[6],6.07 G/DL
